Laboratory results from patent publication US20030008015A1, “Polymer controlled delivery of a therapeutic agent” (priority 2000, published 2003).

How the values were obtained:
[1] = tested on: BBN-induced bladder cancer; experiment: Antitumor activity on BBN-induced bladder cancer: survival and body weight; assay type: in vivo; details: BBN mice
Protocol: (§1) Bladder cancer was induced in female Balb-c mice (8 weeks old) with the carcinogen BBN that was given as a 0.05% solution in the drinking water during 4 weeks. Mice were then treated intravesically (50 μL) with free paclitaxel ([…]) in Tween 80 5%), loaded particles (100 μg) or unloaded particle suspensions. Schedule of administration was the following: mice received the treatment every week during 4 weeks or every other week during 4 weeks. Body weights were recorded every week for all the animals. One week after the last instillation, all the animals were killed. Bladders were removed, weighed and fixed in paraformaldehyde 10% overnight then embedded in paraffin and sectioned.
The anti-cancer activity of paclitaxel encapsulated in microparticles of the invention was assayed against bladder cancer following intravesical instillation. Experimental bladder cancer was induced in female Balb/c mice with BBN, a carcinogenic compound that was added to the drinking water 4 weeks before starting the treatment we compared the same dose (100 μg) of free paclitaxel, encapsulated paclitaxel and non-loaded particles as a control (12 animals per group). Mice received the treatment either once a week or every other week for 4 weeks and number of surviving mice as well as body weight of mice were recorded every week. […]

[2] = tested on: MBT-2 cells; experiment: Observation of MBT-2 cells after incubation with free paclitaxel or particles (confocal microscope); assay type: cell-based; details: 4.4×10^−5 M paclitaxel, observed on day 4
Protocol: Cells were also observed after incubation with free paclitaxel or particles. Cells were seeded on chambered cover-glasses (Labtek). After 1 day, free paclitaxel (4.4×10^−5 M) or particles (same concentration of paclitaxel) were added. Medium was replaced every day with free paclitaxel or medium only in the case of the particles. On day 4, cells were washed, fixed during 30 minutes with paraformaldehyde (2%) then observed with a confocal microscope (Zweiss Axiovert 100) for localization of particles.

[3] = tested on: BBN-induced bladder cancer; experiment: Histologic evaluation and BrdU proliferation index of bladder sections of BBN-mice; assay type: in vivo; details: for Dysplasia (No) / HGTCC (No): number of animals; for CIS (No): number of animals with carcinoma in situ
Protocol: as §1
One week after the last instillation, all the animals were sacrificed and histologic evaluation was performed on haematoxilin and eosin stained sections (table 1). […] In the group treated with free paclitaxel once a week or every other week, CS was found in 5 cases (71°/b) and 7 cases (78%), respectively. On the contrary, no animal of 7 (0%) in the group treated with encapsulated paclitaxel once a week had CIS. Only 2 animals of 9 (22%) treated with particles every other week had CIS. In the groups treated with the paclitaxel, the urothelium was focally or predominantly denuded.
Proliferation index was calculated on these sections using the BrdU incroporation into proliferative cells. BrdU staining was localized in the nucleus with a fine granularity. Nuclei were considered BrdU positve if any nuclear staining was observed. The control group presented a proliferative index of 30% compared to the proliferative index of 10% in a normal urothelium. In all other groups, there was a high proliferative index, from about 35% in groups receiving encapsulated paclitaxel to 65% in groups receiving free paclitaxel.

[4] = tested on: MBT-2 cells; experiment: MBT-2 cell proliferation assay (MTS tetrazolium); assay type: cell-based; details: 3 days, medium with free or extracted paclitaxel replaced every day, 2.9×10^−6 M to 2.9×10^−9 M or serial dilutions
Protocol: MBT-2 cells in culture flasks were maintained in Dulbecco's Modified Eagles Medium, 10% fetal calf serum, 100 μg/mL penicillin and 100 μg/mL streptomycin at 37° C. in an atmosphere of 5% CO2.
For proliferation assay experiments, cells were harvested with Trypsin-EDTA and seeded (3,000 cells) on an uncoated 96-well plate (Falcon). A standard curve was established by using paclitaxel solutions that were prepared by first dissolving paclitaxel in dimethylsulfoxide (DMSO), then dilution with culture medium. Final concentration of DMSO was 0.75%. After 1 day, the culture medium was replaced by medium containing free paclitaxel, with concentrations ranging from 2.9×10^−6 M to 2.9×10^−9 M or paclitaxel extracted from a paclitaxel-loaded microparticle, with serial dilutions. […] After 3 days, cell proliferation was measured by a tetrazolium-based assay (CellTiter96, Promega). […] Formazan production, related to enzymatic cell activity, was determined at 490 rim (Biorad plate reader Model 550). Results are expressed as a percentage of growth inhibition compared to cells incubated in the same conditions with medium. Paclitaxel encapsulation was then calculated from the standard curve of growth inhibition of free paxlitaxel.
Paclitaxel-loaded microparticle activity on MBT-2 cells was also determined with no extraction process. […] After 3 days, cell proliferation was measured as described above.

[5] = 100 μg every other week for 4 weeks

Row | SMILES | survival rate ([1]; 100 μg intravesically every other week for 4 weeks) | survival rate ([1]; 100 μg intravesically once a week for 4 weeks) | shape of the cells [2] | CIS (%) [3, 5] | Proliferative Index (%) ([3]; 100 μg every other week for 4 weeks, BrdU) | CIS (%) ([3]; 100 μg every other week for 4 weeks, listed as free paclitaxel) | Dysplasia (No) [3, 5] | HGTCC (No) [3, 5] | CIS (No) [3, 5] | CIS (%) ([3]; 100 μg once a week for 4 weeks) | Proliferative Index (%) ([3]; 100 μg once a week for 4 weeks, BrdU) | CIS (%) ([3]; 100 μg once a week for 4 weeks, listed as free paclitaxel) | Dysplasia (No) ([3]; 100 μg once a week for 4 weeks) | HGTCC (No) ([3]; 100 μg once a week for 4 weeks) | CIS (No) ([3]; 100 μg once a week for 4 weeks) | effect on the incidence of CIS ([3]; 100 μg, BBN induced bladder cancer) | proliferative index ([3]; BrdU, groups without stated schedule) | MBT-2 cell proliferation [4]
1 | CC(=O)O[C@H]1C(=O)[C@@]2(C)[C@H]([C@H](OC(=O)c3ccccc3)[C@]3(O)C[C@H](OC(=O)[C@H](O)[C@@H](NC(=O)c4ccccc4)c4ccccc4)C(C)=C1C3(C)C)[C@]1(OC(C)=O)CO[C@@H]1C[C@@H]2O [Free paclitaxel, Paclitaxel] | 82% | 82% | modification of the shape of the cells was observed | (78%) | 61% | 78% | 1 | 1 | 7 | (71%) | 65% | 71% | 0 | 1 | 5 | almost no effect | 65% | decreased with an increased concentration
2 | CC(=O)O[C@H]1C(=O)[C@@]2(C)[C@H]([C@H](OC(=O)c3ccccc3)[C@]3(O)C[C@H](OC(=O)[C@H](O)[C@@H](NC(=O)c4ccccc4)c4ccccc4)C(C)=C1C3(C)C)[C@]1(OC(C)=O)CO[C@@H]1C[C@@H]2O [paclitaxel extracted] | – | – | – | – | – | – | – | – | – | – | – | – | – | – | – | – | – | the same trend was observed
